Results: PubChem BioAssay (NCI)
“And” between values parts separate entries of the source, which are not always exact repeats. Equal values may be shown once.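 All cell lines were grown in 96-well plates and treated with compound for 48 hours. The concentration for 50% growth inhibition is given as GI50. At the TGI there is no net growth.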

Columns and labels:
Assay in all cases: growth of human tumour cells (NCI), 48 h
786-0 renal = test system: 786-0 renal
A549 NSCLC = test system: A549 NSCLC
CCRF-CEM leukemia = test system: CCRF-CEM leukemia
HCC-2998 colon = test system: HCC-2998 colon
HCT-15 colon = test system: HCT-15 colon
HOP-92 NSCLC = test system: HOP-92 NSCLC
KM12 colon = test system: KM12 colon
MCF7 breast = test system: MCF7 breast
MDA-MB-231 breast = test system: MDA-MB-231 breast
SR leukemia = test system: SR leukemia

SMILES	TGI (786-0 renal)	TGI (A549 NSCLC) [µM]	TGI (CCRF-CEM leukemia) [µM]	TGI (HCC-2998 colon) [µM]	TGI (HCT-15 colon) [µM]	TGI (HOP-92 NSCLC)	TGI (KM12 colon) [µM]	GI50 (786-0 renal) [µM]	GI50 (A549 NSCLC) [µM]	GI50 (CCRF-CEM leukemia) [µM]	GI50 (HCT-15 colon) [µM]	GI50 (HOP-92 NSCLC) [µM]	GI50 (KM12 colon) [µM]	GI50 (MCF7 breast) [µM]	TGI (MCF7 breast) [µM]	GI50 (MDA-MB-231 breast) [µM]	TGI (MDA-MB-231 breast) [µM]	GI50 (SR leukemia) [µM]	TGI (SR leukemia) [µM]	GI50 (HCC-2998 colon) [µM]
COC(=O)Cc1cc(=O)oc2c1C(=O)CCC2	> 100 µM	> 100	> 100	> 100	> 100	> 100 µM	> 100	–	–	–	–	–	–	–	–	–	–	–	–	–
Cc1ccc(-c2cc(C(Cl)Cl)on2)cc1	> 100 µM	> 100	> 100	–	> 100	> 100 µM	> 100	60.3	65.6	40.9	42.4	33.5	36.6	97.6	> 100	> 100	> 100	–	–	–
N#CC1=C(N)NC(=S)C(C#N)C12Nc1ccccc1S2 (stereo not given)	68.9 µM	53.1	–	–	42.3	> 100 µM	> 100	25.4	23.1	–	15	60.8	24.8	8.14	> 100	11	32.9	78.9	> 100	–
O=C(O)C(CS)N=Cc1nc(-c2ccccc2)oc1O (stereo not given)	> 100 µM	> 100	> 100	> 100	> 100	> 100 µM	–	–	–	–	–	–	–	–	–	–	–	–	> 100	–
NC(=O)c1ncn(C2OC(CO)C(O)C2O)c1NC(=S)NC(=O)c1ccccc1 (stereo not given)	> 100 µM	> 100	> 100	> 100	–	> 100 µM	> 100	–	–	–	–	–	–	–	–	–	–	–	> 100	–
CCCC/C=C1\CCC(CN2CCCC2)C1=O (stereo not given)	3.62 µM	40.3	25	33.7	11.2	31.1 µM	8.28	–	–	–	–	–	–	–	–	–	–	–	24.5	–
CN1C=C(C(N)=O)C2CC(O)[C@@](NC(=O)CS(N)(=O)=O)(C(=O)O)C2C1 (stereo not given in full)	16.4 µM	> 36.2	> 100	34	66.3	5.05 µM	49.8	–	–	–	–	–	–	–	–	–	–	–	15.7	–
NCCn1c2c(c3ccccc3c1=O)C(=O)c1ccccc1-2	1.78 µM	0.676	1.74	1.64	2.32	6.24 µM	2.38	0.552	–	0.33	0.271	0.626	0.325	0.292	12.6	0.431	1.49	–	–	0.329
CCC1(Cl)C(=O)NC(=O)N(C2CC(O)C(CO)O2)C1N=[N+]=[N-] (stereo not given)	> 100 µM	> 100	> 100	> 100	–	> 100 µM	–	–	–	–	–	–	–	–	–	–	–	–	–	–
CCCCOP1(=O)C=CC(Cl)=C(C)C1 (stereo not given)	49.3 µM	> 100	35	–	32.8	54.5 µM	46.6	–	–	–	–	–	–	–	–	–	–	–	39.4	–
Cc1cc(N(CCC#N)CCC#N)ccc1/C=C/C(=O)Nc1ccccc1Cl	> 100 µM	> 100	> 100	> 100	> 100	> 100 µM	> 100	–	–	–	–	–	–	–	–	–	–	–	–	–
Cc1cc(C)c2nccc(NCCCN(C)C)c2c1[N+](=O)[O-]	> 100 µM	> 100	> 100	51.1	30.7	–	> 100	–	–	–	–	–	–	–	> 100	–	> 100	–	> 100	–
Cc1nnc(N=Nc2c(O)[nH]c3ccccc23)[nH]c1=O	> 100 µM	> 100	–	–	> 100	> 100 µM	> 100	–	–	–	–	–	–	–	> 100	–	> 100	–	> 100	–
COc1cc(-c2nn3c(=O)n(-c4ccc(Cl)cc4)c(=O)nc3s2)cc(OC)c1OC	50 µM and 41.4 µM	> 100	> 100	> 100	> 100	50 µM and 59.7 µM	> 100	17.4	> 50	> 5	> 50	44.4	> 50	–	–	–	–	–	–	> 50
N=C(N)SCC(=O)O	> 100 µM	> 100	> 100	> 100	> 100	> 100 µM	> 100	–	–	–	–	–	–	–	> 100	–	> 100	–	–	–
CN1CCN(CCCOc2ccc3ncnc(Nc4ccc(Oc5cccc(F)c5)c(Cl)c4)c3c2)CC1	3 µM	3.24	8.21	3.06	2.92	2.26 µM	3.39	1.61	1.56	1.97	1.27	0.907	1.81	1.57	3.31	1.7	3.16	–	–	1.64
c1cc2ccc1C1NCCCN1CCN1CCCNC1c1ccc(cc1)C1NCCCN1CCN1CCCNC21 (stereo not given)	> 100 µM	> 100	> 100	–	> 100	> 100 µM	> 100	–	–	–	–	–	–	–	–	–	–	–	–	–
C=CCN(N=O)C(=O)ON1C(=O)CCC1=O	> 100 µM	> 100	> 100	> 100	> 100	> 100 µM	> 100	–	–	–	–	–	–	–	–	–	–	–	–	–
Fc1ccc(-c2cc(-c3cn[nH]c3-c3ccccn3)ccn2)cc1	> 25 µM	> 25	> 25	> 25	> 25	> 25 µM	> 25	> 22.6	> 25	> 25	> 25	24.6	> 25	> 25	> 25	> 25	> 25	–	–	> 25
O=C1OC(c2ccc(Cl)c3ccccc23)c2ccccc21 (stereo not given)	> 100 µM	> 100	> 100	> 100	> 100	> 100 µM	> 100	–	–	–	–	–	–	–	–	–	–	–	> 100	–
O=c1c2ccccc2c(=O)c2c1sc1c(=O)c3ccc(O)cc3c(=O)c12	4.44 µM	0.497	10.3	–	–	–	8.24	1.8	0.222	2.59	–	–	2.05	–	–	1.72	8.19	1.08	> 100	–

SMILES	TGI (786-0 renal)	TGI (A549 NSCLC) [µM]	TGI (CCRF-CEM leukemia) [µM]	TGI (HCC-2998 colon) [µM]	TGI (HCT-15 colon) [µM]	TGI (HOP-92 NSCLC)	TGI (KM12 colon) [µM]	GI50 (786-0 renal) [µM]	GI50 (A549 NSCLC) [µM]	GI50 (CCRF-CEM leukemia) [µM]	GI50 (HCT-15 colon) [µM]	GI50 (HOP-92 NSCLC) [µM]	GI50 (KM12 colon) [µM]	GI50 (MCF7 breast) [µM]	TGI (MCF7 breast) [µM]	GI50 (MDA-MB-231 breast) [µM]	TGI (MDA-MB-231 breast) [µM]	GI50 (SR leukemia) [µM]	TGI (SR leukemia) [µM]	GI50 (HCC-2998 colon) [µM]
C/C(=N\O)[C@H]1CC[C@@]2(C)[C@@H]3CC[C@H]4C(C)(C)/C(=N/O)CC[C@@]45CC35CC[C@]12C (stereo not given in full)	6.85 µM	9.59	–	–	10.5	5.45 µM	7.03	2.97	3.92	–	3.75	2.09	2.84	5.82	> 16.7	7.46	> 16.7	1.85	> 16.7	–
Cc1ccc(N2C(=O)/C(=C3\Sc4c(nc(C)n(C)c4=O)N3c3ccccc3)SC2=S)cc1	> 100 µM	> 100	> 100	> 100	> 100	> 100 µM	> 100	–	–	–	–	–	–	–	–	–	–	–	> 100	–
CC(C)(C)c1cc(C(=O)O)c(C(c2ccccc2)c2ccccc2C(=O)O)c(C(=O)O)c1 (stereo not given)	> 100 µM	> 100	> 100	–	> 100	–	> 100	–	–	–	–	–	–	–	–	–	–	–	> 100	–
CC(=O)Oc1ccc2c(c1)O/C(=C\c1ccc(O)cc1)C2=O	> 100 µM	> 100	> 100	> 100	> 100	–	> 100	–	–	–	–	–	–	–	> 100	–	> 100	–	> 100	–
C=C1c2ccccc2N(S(=O)(=O)c2ccc(C)cc2)C12CCCCC2	> 100 µM	> 100	> 100	> 100	> 100	58.5 µM	> 100	–	–	–	–	–	–	–	–	–	–	–	> 100	–
CCOC(=O)c1cc(C(=O)O)c(=O)n2c1[nH]c1ccccc12	> 100 µM	> 100	> 100	> 100	> 100	–	> 100	–	–	–	–	–	–	–	–	–	–	–	–	–
O=c1ncccn1C1OC(CO)C(O)C1F (stereo not given)	> 100 µM	> 100	> 100	> 100	> 100	> 100 µM	> 100	–	–	> 100	> 100	–	> 100	–	–	–	–	–	> 100	–
CC12O[Te]34OC1(C)C(C)(O3)C2(C)O4	29.3 µM	25.1	–	14.1	54	–	27.4	–	–	–	–	–	–	–	–	–	–	–	34	–
Cc1cc([C@H](C)Nc2nccc(N3C(=O)OC[C@@H]3[C@H](C)F)n2)ncc1-c1ccnc(C(F)(F)F)c1	> 100 µM	> 100	> 100	> 100	> 100	> 100 µM	> 100	42.4	29.8	38.1	35.5	14.9	33.8	26.7	> 100	34.5	> 100	–	–	72.6
O=C1[C@H]2ON(c3ccccc3)C(c3cccc([N+](=O)[O-])c3)[C@H]2C(=O)N1c1ccc(Cc2ccc(N3C(=O)[C@@H]4ON(c5ccccc5)C(c5cccc([N+](=O)[O-])c5)[C@@H]4C3=O)cc2)cc1 (stereo not given in full)	> 100 µM	> 100	> 100	> 100	> 100	–	> 100	–	–	–	–	–	–	–	–	–	–	–	> 100	–
O=C(O)C(Cc1c[nH]c2ccccc12)N1C(=O)c2ccccc2C1=O (stereo not given)	> 100 µM	> 100	–	> 100	> 100	> 100 µM	> 100	–	–	–	–	–	–	–	> 100	–	> 100	–	–	–
CC1(C)Oc2ccccc2N2O[C@@H]3C(=O)N(c4ccccc4)C(=O)[C@@H]3C21c1ccccc1 (stereo not given in full)	30.3 µM	48.4	> 100	> 100	–	–	> 100	–	–	–	–	–	–	–	–	–	–	–	–	–
CC[C@H](C)[C@H](NC(=O)N[C@@H](C)c1ccccc1)C(=O)N(C)[C@H](C[C@@H](OC(C)=O)c1nc(C(=O)N[C@@H](Cc2ccccc2)C[C@H](C)C(=O)OC)cs1)C(C)C	82.2 µM	> 100	> 100	> 100	> 100	90.5 µM	84.3	22.9	67.3	23.9	25.4	11.1	17.2	7.28	> 100	20.7	63.8	–	–	28.8
OCCN(CCO)c1ncnc2c1sc(=S)n2-c1ccccc1	> 100 µM	> 100	> 100	> 100	> 100	> 100 µM	> 100	–	–	–	–	–	–	–	–	–	–	–	> 100	–
C1=CC=C2NCCSCCNC3=CC=CC=CC3=NCCSCCN=C2C=C1	> 100 µM	> 100	> 100	> 100	> 100	–	> 100	–	–	–	–	–	–	–	–	–	–	–	–	–
COC(=O)C1=C(C(=O)OC)N(C(C)C)[C@H]2C(C(=O)OC)=C(C(=O)OC)N(C(C)C)[C@@H]12	> 100 µM	> 100	> 100	–	> 100	> 100 µM	> 100	–	–	–	–	–	–	–	–	–	–	–	> 100	–
CC(C)(C)OC(=O)n1c(Cl)c(C(=O)N=C=S)c2ccccc21	> 100 µM	> 100	> 100	> 100	> 100	65.4 µM	52	80	50	35.5	30	17.2	18.4	37.2	> 100	15.7	46	–	–	38.9
O=C1Cc2ccccc2CCc2ccccc21	> 100 µM	> 100	> 100	> 100	> 100	> 100 µM	> 100	–	–	–	–	–	–	–	–	–	–	–	> 100	–
O=c1/c(=C/c2ccc3c(c2)OCO3)sc2nnc(Cc3ccccc3)n12	> 100 µM	> 100	> 100	> 100	> 100	> 100 µM	> 100	–	–	–	–	–	–	–	–	–	–	–	–	–
CCOc1ccccc1NC(=O)CCC(=O)NN	> 100 µM	> 100	> 100	> 100	> 100	> 100 µM	> 100	–	–	–	–	–	–	–	–	–	–	–	70.1	–
O=C(NOC(=O)c1ccc([N+](=O)[O-])cc1)c1ccc(Cl)cc1	> 100 µM	> 100	> 100	> 100	> 100	> 100 µM	> 100	–	–	–	–	–	–	–	–	–	–	–	> 100	–
